Test results as given in publication doi:10.1101/2025.08.21.671483v1, “In vitro and in vivo activity profiles of broad-spectrum bacterial ATP synthase inhibitors” (biorxiv, 2025).

How the values were obtained:
E. coli ATP synthase [1] = molecular target: T1, E. coli ATP synthase (Escherichia coli, UniProt P68699); experiment: ATP synthesis kinetics, membrane vesicles, luciferase luminescence; assay type: biochemical; details: ADP varied 0.05-1 mM, NADH-driven, pre-exposure 0-10 min
T1 construct: gene atpE

[2] = system: T2, S. aureus ATCC 29740 (Newbould); experiment: microbe, parasite or virus in culture; parameters: species or system bacteria; CLSI broth microdilution MIC, no visible growth; details: Staphylococcus aureus, ATCC29740, read-out: TM-184 MIC
T2 construct: ATCC 29740 (Newbould)

E. coli ATP synthase [3] = molecular target: T1, E. coli ATP synthase; experiment: ATP production by membrane vesicles, luciferase luminescence; assay type: biochemical; details: […] NADH, 1 mM ADP, 10 mM potassium phosphate; 30 min preincubation, 60 min reaction
From the text: ATP production by membrane vesicles, luciferase luminescence on E. coli ATP synthase

S. aureus ATCC 29740hemB = experiment: microbe, parasite or virus in culture; details: Staphylococcus aureus, ATCC29740HEMB, read-out: MIC
[4] = system: T3, Escherichia coli 70122 CW-2007; experiment: microbe, parasite or virus in culture; parameters: species or system bacteria; CLSI broth microdilution MIC, no visible growth; details: 70122CW2007, read-out: Table 3 TM-184 MIC
T3 construct: 70122 CW-2007

Escherichia coli ec309 = system: T4, Escherichia coli ec309; experiment: microbe, parasite or virus in culture; parameters: species or system bacteria; CLSI broth microdilution MIC, no visible growth; details: EC309, read-out: Table 3 TM-184 MIC
T4 construct: ec309

Escherichia coli ec302 = system: T5, Escherichia coli ec302; experiment: microbe, parasite or virus in culture; parameters: species or system bacteria; CLSI broth microdilution MIC, no visible growth; details: EC302, read-out: Table 3 TM-184 MIC
T5 construct: ec302

Escherichia coli ec308 = system: T6, Escherichia coli ec308; experiment: microbe, parasite or virus in culture; parameters: species or system bacteria; CLSI broth microdilution MIC, no visible growth; details: EC308, read-out: Table 3 TM-184 MIC
T6 construct: ec308

[5] = system: T7, Escherichia coli ATCC BAA2471; experiment: microbe, parasite or virus in culture; parameters: species or system bacteria; CLSI broth microdilution MIC, no visible growth; details: ATCCBAA2471, read-out: Table 3 TM-184 MIC
T7 construct: ATCC BAA-2471

[6] = system: T8, Escherichia coli ATCC 35218; experiment: microbe, parasite or virus in culture; parameters: species or system bacteria; CLSI broth microdilution MIC, no visible growth; details: ATCC35218, read-out: Table 3 TM-184 MIC
T8 construct: ATCC 35218

Escherichia coli ec310 = system: T9, Escherichia coli ec310; experiment: microbe, parasite or virus in culture; parameters: species or system bacteria; CLSI broth microdilution MIC, no visible growth; details: EC310, read-out: Table 3 TM-184 MIC
T9 construct: ec310

Escherichia coli ec305 = system: T10, Escherichia coli ec305; experiment: microbe, parasite or virus in culture; parameters: species or system bacteria; CLSI broth microdilution MIC, no visible growth; details: EC305, read-out: Table 3 TM-184 MIC
T10 construct: ec305

[7] = system: T11, Escherichia coli 95882 CW-2011; experiment: microbe, parasite or virus in culture; parameters: species or system bacteria; CLSI broth microdilution MIC, no visible growth; details: 95882CW2011, read-out: Table 3 TM-184 MIC
T11 construct: 95882 CW-2011

E. coli MC4100 lptD4213 = system: T12, E. coli MC4100 lptD4213; experiment: microbe, parasite or virus in culture; details: Escherichia coli, MC4100LPTD4213, read-out: MIC
T12 construct: MC4100 lptD4213 membrane-compromised

[8] = system: T13, Citrobacterfreundii ATCC 8090; experiment: organism not typed; parameters: species or system bacteria; CLSI broth microdilution MIC, no visible growth; details: read-out: Table 5 TM-184 MIC
T13 construct: ATCC 8090

E. coli ATCC 25922 = system: T14, E. coli ATCC 25922; experiment: microbe, parasite or virus in culture; parameters: species or system bacteria; CLSI broth microdilution MIC, no visible growth; details: Escherichia coli, ATCC25922, read-out: TM-184 MIC
T14 construct: ATCC 25922

[9] = system: T15, Escherichia coli ATCC 25922; experiment: microbe, parasite or virus in culture; details: ATCC25922, read-out: MIC (ug/ml) second column
T15 construct: ATCC 25922

E. coli MC4100 WT = system: T16, E. coli MC4100 WT; experiment: microbe, parasite or virus in culture; parameters: species or system bacteria; CLSI broth microdilution MIC, no visible growth; details: Escherichia coli, MC4100WT, read-out: TM-184 MIC
T16 construct: MC4100 (ATCC 35695)

E. coli MC4100 acrAB = system: T17, E. coli MC4100 acrAB; experiment: microbe, parasite or virus in culture; details: Escherichia coli, MC4100ACRAB, read-out: MIC
T17 construct: MC4100 acrAB efflux-deficient

S. aureus ATP synthase = molecular target: T18, S. aureus ATP synthase (Staphylococcus aureus, UniProt Q99SF0); experiment: ATP production by membrane vesicles, luciferase luminescence; assay type: biochemical; details: […] NADH, 1 mM ADP, 10 mM potassium phosphate; 30 min preincubation, 60 min reaction
T18 construct: gene atpE
From the text: ATP production by membrane vesicles, luciferase luminescence on S. aureus ATP synthase

O=[N+]([O-])c1ccc(Cl)c2nonc12 [4-chloro-7-nitrobenzofurazan, reference compound]
Ki (E. coli ATP synthase [1]; positive control, covalent): 1800 nM

C[C@H]1CC[C@]2(NC1)O[C@H]1C[C@H]3[C@@H]4CC[C@H]5CC(NC[C@H](N)Cc6ccc(I)cc6)CC[C@]5(C)[C@H]4CC[C@]3(C)[C@H]1[C@@H]2C (mixture of isomers) [TM-184]
MIC [2]: 2 µg/mL
IC50 (E. coli ATP synthase [3]): 1570 ± 170 nM
MIC (S. aureus ATCC 29740hemB): ≤ 0.25 µg/mL
MIC [4]: 16 µg/mL
MIC (Escherichia coli ec309): 16 µg/mL
MIC (Escherichia coli ec302): 16 µg/mL
MIC (Escherichia coli ec308): 4 µg/mL
MIC [5]: 16 µg/mL
MIC [6]: 16 µg/mL
MIC (Escherichia coli ec310): 16 µg/mL
MIC (Escherichia coli ec305): 2 µg/mL
MIC [7]: 16 µg/mL
MIC (E. coli MC4100 lptD4213): 2 µg/mL
MIC [8]: 8 µg/mL
MIC (E. coli ATCC 25922): 4 µg/mL
Ki (E. coli ATP synthase [1]): 800 to 1300 nM
MIC [9]: 4 µg/mL
MIC (E. coli MC4100 WT): 8 µg/mL
MIC (E. coli MC4100 acrAB): 4 µg/mL
IC50 (S. aureus ATP synthase): 700 ± 330 nM
